In publication PMC7072302 (Biomolecules, 2020):

Molecular target: T1, tyrosinase (Agaricus bisporus, UniProt C7FF04)
T1 construct: purchased Sigma-Aldrich T3824
Test: Tyrosinase enzymatic assay (L-tyrosine substrate, absorbance at 475 nm)
Assay type: biochemical
Conditions: for Ki: Dixon plot, read-out: Ki (inhibition constant); for inhibition at 100 µM: compound concentration 100 μM, L-tyrosine substrate, triplicate, mean ± SD, read-out: Inhibition Rate (%) at 100 μM; for IC50: concentrations 3.1 to 100 μM, mean ± SD (n = 3)

T1 sequence (C7FF04 1-392 limits assumed): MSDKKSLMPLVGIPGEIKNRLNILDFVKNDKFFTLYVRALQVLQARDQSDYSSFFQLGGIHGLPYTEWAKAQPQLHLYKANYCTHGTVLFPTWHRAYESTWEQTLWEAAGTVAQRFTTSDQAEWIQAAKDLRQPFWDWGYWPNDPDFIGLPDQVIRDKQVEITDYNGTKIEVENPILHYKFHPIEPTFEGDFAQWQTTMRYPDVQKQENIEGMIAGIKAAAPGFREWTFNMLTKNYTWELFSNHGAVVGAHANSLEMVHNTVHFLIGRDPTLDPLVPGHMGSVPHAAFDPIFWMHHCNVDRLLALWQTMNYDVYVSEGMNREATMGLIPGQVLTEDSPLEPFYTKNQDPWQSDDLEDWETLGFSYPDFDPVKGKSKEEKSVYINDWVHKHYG

COc1cc(C(=O)OCCCCN=C(N)N)cc(OC)c1OC [Compound 1, 10-methoxy-leonurine]
Ki: 1.6 µM | inhibition at 100 µM: > 80% | IC50: 7.4 ± 0.4 µM

COc1cc(C(=O)OCCCCNC(=N)N)cc(OC)c1O [Compound 2, leonurine]
Ki: 11.4 µM | inhibition at 100 µM: > 80% | IC50: 12.4 ± 0.8 µM

COc1cc(C(=O)O)cc(OC)c1O [Compound 3, syringic acid]
inhibition at 100 µM: 11.6 ± 0.1%

O=c1c(O[C@@H]2O[C@H](CO)[C@@H](O)[C@H](O)[C@H]2O)c(-c2ccc(O)c(O)c2)oc2cc(O)cc(O)c12 [Compound 4, isoquercitrin]
inhibition at 100 µM: 1.8 ± 5.9%
